# According to patent US20150246058A1, “COMPOSITION FOR PREVENTING HAIR LOSS AND ACCELERATING HAIR GROWTH” (RNS CO., LTD., priority 2012, published 2015):
# Tested on: 5α-reductase
# Assay: 5α-reductase inhibitory efficacy: DHT produced in testosterone-stimulated dermal papilla cells (DHT ELISA)
# Type: cell-based
# Conditions: 50 nM testosterone, 24 hours, produced DHT relative to control
# Description: After seeding 1 ml of dermal papilla cells (DPCs) by 5×10^5/ml into each well of a 24-well plate, then incubating the same for 24 hours, each of the reaction products prepared according to procedures described in Examples 1 to 72 was added in amounts of 50 μg/ml, 10 μg/ml and 0 μg/ml, respectively, to individual wells. After 1 hour, the wells were subjected to stimulation using 50 nM testosterone (DMSO dissolved). The supernatant was discarded 24 hours after culturing, to thus obtain DPc pellets. A content of dihydrotestosterone (DHT) (DB52021, Hamburg, Germany) was determined by means of enzyme-linked immune-sorbent assay. DPCs cell pellets were seeded in an amount of 100 μL into each of Dihydrotestosterone (DHT) ELISA microtiter strips coated with rabbit anti-DHT antibody, 25 μL of DHT antiserum was seeded in every well, and subjected to a reaction at 2 to 8° C. for 15 to 20 hours, followed by washing the same three times. Thereafter, 100 μL of DHT-HRP enzyme conjugate was seeded in every well and reacted on a shaker at room temperature for 30 minutes, followed by washing the same three times. Furthermore, 100 μL of substrate was seeded in every well and reacted on a shaker at room temperature for 20 to 30 minutes. Then, the product was treated using 100 μL stop solution, and subjected to measurement of absorbance at 450 nm to express an amount of produced DHT by the absorbance (three times repeated). An amount of produced DHT relative to a control was calculated in terms of an inhibitory rate (%), and results thereof are shown in Table 3 below.
SMILES,5α-reductase inhibitory rate (%) (sample concentration 10 μg/ml),5α-reductase inhibitory rate (%) (sample concentration 50 μg/ml)
"COC1CCC2(C)C(CCC3(C)C2CC=C2C4CC(C)(C)CCC4(C)CCC23C)C1(C)C (stereo not drawn) [Compound in Example 50, O-methyl-β-amyrin]",16,31
"CCCCCOC1CCC2(C)C(CCC3(C)C2CC=C2C4CC(C)(C)CCC4(C)CCC23C)C1(C)C (stereo not drawn) [Compound in Example 51, O-pentyl-β-amyrin]",22,38
"CCCCCCCCOC1CCC2(C)C(CCC3(C)C2CC=C2C4CC(C)(C)CCC4(C)CCC23C)C1(C)C (stereo not drawn) [Compound in Example 52, O-octyl-β-amyrin]",28,43
"CCCCCCCCOC1CCC2(C)C(CCC3(C)C2CC=C2C4C(C)C(C)CCC4(C)CCC23C)C1(C)C (stereo not drawn) [Compound in Example 55, O-octyl-α-amyrin]",24,38
"CCCCCCCCOC1CCC2(C)C(=CCC3C2CCC2(C)C(C(C)CCC(CC)C(C)C)CCC32)C1 (stereo not drawn) [Compound in Example 57, O-octyl-β-sitosterol]",21,41
"CCCCCCCCCCCCCCCCCCO[C@H]1CC[C@@]2(C)C(=CC[C@H]3[C@@H]4CC[C@H]([C@H](C)CC[C@@H](CC)C(C)C)[C@@]4(C)CC[C@@H]32)C1 [Compound in Example 58, O-octadecyl-β-sitosterol]",31,46
"CCCCCCCCOC1CCC2(C)C(CCC3(C)C2CC=C2C4C(C)C(C)CCC4(C(=O)O)CCC23C)C1(C)C (centres unmarked) [Compound in Example 59, O-octyl-ursolic acid]",22,41
"CCCCCCCCCCCCCCCCCCOC1CCC2(C)C(CCC3(C)C2CC=C2C4C(C)C(C)CCC4(C(=O)O)CCC23C)C1(C)C (centres unmarked) [Compound in Example 60, O-octadecyl-ursolic acid]",35,49
"CCCCCCCCOC1CCC2(C)C(CCC3(C)C2CC=C2C4CC(C)(C)CCC4(C(=O)O)CCC23C)C1(C)C (centres unmarked) [Compound in Example 61, O-octyl-oleanolic acid]",22,37
"CCCCCCCCOC1CCC2(C)C(CCC3(C)C2CC=C2C4CC(C)(C)CCC4(C)CCC23C)C1(C)C(=O)O (stereo not drawn) [Compound in Example 63, O-octyl-α-boswellic acid]",21,34
"C=C(C)C1CCC2(C(=O)O)CCC3(C)C(CCC4C5(C)CCC(OCCCCCCCC)C(C)(C)C5CCC43C)C12 (centres unmarked) [Compound in Example 65, O-octyl-betulinic acid]",19,31
"CCCCCCCCOC1CCC2(C)C(CCC3(C)C2C(=O)C=C2C4CC(C)(C(=O)O)CCC4(C)CCC23C)C1(C)C (centres unmarked) [Compound in Example 66, O-octyl-glycyrrhetinic acid]",33,51
"CCCCCCCCOC1CCC2(C)C(=CCC3C2CCC2(C)C(C(C)CCC=C(C)C)CCC32)C1 (centres unmarked) [Compound in Example 67, O-octyl-desmosterol]",24,41
"CCCCCCCCO[C@H]1CC[C@@]2(C)C(=CC[C@H]3[C@@H]4CC[C@H]([C@H](C)CCCC(C)C)[C@@]4(C)CC[C@@H]32)C1 [Compound in Example 68, O-octyl-cholesterol]",35,45
"CCCCCCCCOC1CCC2(C)C(=CCC3C2CCC2(C)C(C(C)C=CC(CC)C(C)C)CCC32)C1 (centres unmarked) [Compound in Example 69, O-octyl-stigmasterol]",19,33
"CCCCCCCCOC1CCC2(C)C(=CCC3C2CCC2(C)C(C(C)CCC(C)C(C)C)CCC32)C1 (centres unmarked) [Compound in Example 70, O-octyl-campesterol]",28,51
